Data as given in patent publication US9028887B2, “Method improve spatial memory via pterostilbene administration” (The United States of America, as represented by the …, priority 2007, dated 2015).

What was measured:
[1] = test system: M1-transfected COS-7 cells; assay: Calcium recovery in M1-transfected COS-7 cells after dopamine treatment and oxotremorine-induced depolarization; assay type: cell-based, African green monkey; conditions: 10 μg/ml pre-treatment 45 min, then 1 mM dopamine 4 hours; 750 μM oxotremorine depolarization
Experimental: COS-7 cells, a cell line derived from African green monkey kidney, were grown in Dulbecco's Modified Eagle's Medium (D-MEM) supplemented with 10% fetal bovine serum (FBS) and containing 100 U/ml penicillin and 100 μg/ml streptomycin sulfate. Twenty four hours prior to transfection, cells were harvested with trypsin, counted, and plated on […] tissue culture plates at 5×10^6 cells/plate. Cells were transiently transfected with rat muscarinic receptor subtype 1 DNA by the DEAE-dextran method. After transfection, cells were incubated 2.5 hours in growth medium containing 80 μM chloroquine to minimize degradation of the DNA. Transfected cells were then maintained in growth medium for 48 hours, harvested with trypsin, plated to coverslips in 35 mm plates for calcium imaging, and incubated overnight.
Dis. 6:403-411, and hereby incorporated by reference. The BB extract and stilbenes were dissolved in growth media and cells were subsequently incubated for 45 minutes at 37° C. with the treated growth medium, followed by dopamine administration for 4 hours. Following these incubations, the cells were washed three times with extract-free growth medium prior to testing.
Calcium imaging was carried out using a Medical Systems Corp. open perfusion micro-incubator (37° C.) with temperature control that was mounted on the stage of a Nikon Eclipse TE200U microscope and illuminated with a fluorescent light source. Transfected cells were loaded with Fura-2/acetoxymethyl ester (2 μM) in loading medium (99% DMEM 1% FES) for 40 minutes at 37° C. with 5% CO2.
Real time analyses of calcium flux prior to and following 750 μM oxotremorine-induced depolarization were then carried out using Simple PCI software (Compix, Inc. Mars, Pa.). Response and recovery were then determined for each sample. […] Recovery was determined by assessing the time (within 300 sec) for the Ca^2+ levels to return to 20% of the increase following depolarization in the cells that responded. Data was analyzed by Kruskal-Wallis one-way analysis of variance and Mann-Whitney U tests.

striatal slices = assay: Oxotremorine enhancement of K+-evoked dopamine release from striatal slices of diet-fed rats; assay type: in vivo, rat; conditions: for dopamine release (oxotremorine-enhanced striatal K+-ERDA), H2O2-treated vs non-H2O2-treated: 50 μM H2O2, 500 μM oxotremorine
Text: The muscarinic enhancement of K^+-evoked dopamine release (K^+-ERDA) from superfused striatal slices is an indicator of receptor sensitivity and striatal function and is sensitive to aging and oxidative stress as disclosed in Joseph et al., 1988. Brain Res., 454:140-8: Joseph et al., 1988. Brain Res., 454:149-55; Joseph J., et al., 1990. Brain Res., 537:40-48; Joseph et al., 1996. Free Radic. Biol. Med., 20: 821-30 and herein incorporated by reference. Additionally, muscarinic enhancement of dopamine release is sensitive to dietary supplementation as disclosed in Joseph et al., 1998. J. Neurosci., 18: 8047-8055; Joseph et al., 1999. J. Neurosci., 19: 8114-8121; Youdim et al., 2000. Nutr Neurosci., 3: 383-97; Shukitt-Hale et al., 2005. Age., 27: 49-57; Shukitt-Hale et al., 2006. Nutrition, 22: 295-302 and herein incorporated by reference. The protective capacity of the striatal tissue obtained from the control and supplemented groups were assessed by examining differences in the oxotremorine-enhancement of striatal K^+-ERDA. Dopamine release was conducted 2-3 weeks following behavioral testing on freshly dissected and cross cut (300 μm, McIlwain tissue chopper) striatal slices from subject brains that were fed a high dose, low dose and control diet. The slices were placed in small glass vials containing modified Krebs-Ringer basal release medium (BRM) that had been bubbled for 30 min with 95% O2/5% CO2 and containing 21 mM NaHCO3, 3.4 mM glucose, 1.3 mM NaH2PO4, 1 mM EGTA, 0.93 mM MgCl2, 127 mM NaCl and 2.5 mM KCl (low KCl) (pH 7.4). Half of the tissue was treated with 50 μM […] to assess the effect of diet under conditions of oxidative stress. […] Following this equilibration period, the medium was switched to one containing (in mM) KCl 30 (high KCl), CaCl2.2H2O 1.26 (in place of EGTA), NaCl 57, and 0 or 500 μM oxotremorine and then the enhancement of K^+-ERDA was assessed. Dopamine release was quantitated by HPLC coupled to electrochemical detection and expressed as pmoles/mg protein as determined by the Lowry procedure.

cyclooxygenase-1 = cyclooxygenase-1 (Homo sapiens, UniProt P23219); conditions: Rimando et al., 2002; cited from earlier work
[2] = target: T1, peroxisome proliferator-activated alpha isoform, (PPARα) (Homo sapiens, UniProt Q07869); conditions: Rimando et al., 2005; cited from earlier work
T1 sequence (Q07869 1-468): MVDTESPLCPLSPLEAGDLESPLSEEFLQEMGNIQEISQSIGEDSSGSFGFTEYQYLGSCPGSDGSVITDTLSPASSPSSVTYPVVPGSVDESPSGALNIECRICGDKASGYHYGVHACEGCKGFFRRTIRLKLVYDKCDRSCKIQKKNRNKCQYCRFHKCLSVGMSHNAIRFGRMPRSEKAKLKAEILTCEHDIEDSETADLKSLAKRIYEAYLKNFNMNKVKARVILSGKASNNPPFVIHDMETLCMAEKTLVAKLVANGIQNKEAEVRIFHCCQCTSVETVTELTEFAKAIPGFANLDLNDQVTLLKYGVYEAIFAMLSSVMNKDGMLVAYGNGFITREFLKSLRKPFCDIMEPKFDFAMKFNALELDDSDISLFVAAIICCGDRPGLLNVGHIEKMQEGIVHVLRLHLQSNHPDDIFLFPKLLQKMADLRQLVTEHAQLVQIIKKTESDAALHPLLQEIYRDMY

[3] = test system: inducible nitric oxide synthase (iNOS); conditions: HT-29 human adenocarcinoma cell lines; Suh et al., 2007; cited from earlier work
[4] = compared with resveratrol; Rimando et al., 2002; Stivala et al., 2001; cited from earlier work

cyclooxygenase-1, sequence (P23219 24-599, species assumed): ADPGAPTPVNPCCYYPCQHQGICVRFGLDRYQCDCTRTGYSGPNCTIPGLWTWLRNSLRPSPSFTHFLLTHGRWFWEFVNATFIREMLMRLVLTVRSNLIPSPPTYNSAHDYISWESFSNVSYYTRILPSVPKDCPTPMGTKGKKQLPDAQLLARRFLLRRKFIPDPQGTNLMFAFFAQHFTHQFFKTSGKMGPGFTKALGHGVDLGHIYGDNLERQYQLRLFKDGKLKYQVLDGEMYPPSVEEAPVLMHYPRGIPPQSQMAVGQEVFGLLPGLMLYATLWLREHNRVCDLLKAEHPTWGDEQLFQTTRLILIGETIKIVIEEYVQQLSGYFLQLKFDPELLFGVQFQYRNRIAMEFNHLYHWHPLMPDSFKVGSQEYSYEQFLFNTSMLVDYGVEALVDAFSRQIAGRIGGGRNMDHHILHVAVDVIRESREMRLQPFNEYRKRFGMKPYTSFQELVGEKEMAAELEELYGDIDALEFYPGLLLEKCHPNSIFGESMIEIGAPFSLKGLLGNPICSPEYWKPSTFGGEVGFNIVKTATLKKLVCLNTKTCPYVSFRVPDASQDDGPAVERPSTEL

COc1cc(/C=C/c2ccc(O)cc2)cc(OC)c1 [pterostilbene, trans-3,5-dimethoxy-4′-hydroxystilbene]
protection against dopamine-induced decreases in Ca2+ Recovery [1]: protected against the dopamine-induced decreases in Recovery | dopamine release (oxotremorine-enhanced striatal K+-ERDA) among diet groups (striatal slices; basal conditions (no H2O2), low and high dose vs control diet, p>0.05): no differences among the diet groups | dopamine release (oxotremorine-enhanced striatal K+-ERDA), H2O2-treated vs non-H2O2-treated (striatal slices; high dose diet 0.016%): no differences were seen following H2O2 treatment | dopamine release (oxotremorine-enhanced striatal K+-ERDA), H2O2-treated vs non-H2O2-treated (striatal slices; low dose diet 0.004%): no differences were seen following H2O2 treatment | inhibition of cyclooxygenase-1 (cyclooxygenase-1): moderate inhibition | activation of PPARα [2]: identified to activate | expression of iNOS [3]: inhibits the expression of inducible nitric oxide synthase (iNOS) | antioxidant activity [4]: antioxidant activity similar to that of resveratrol
